Laboratory results as given in ChEMBL document CHEMBL3217430, “Experimental validation of in silico target predictions on synergistic protein targets” (Medchemcomm, 2013).
Calls of active or inactive are those of the source. The rule behind the calls is not given here.

Columns and labels:
[1] = system: HeLa; assay: Cytotoxicity against human HeLa cells assessed as cell viability at 120 uM after 3 days by CellTiter96 Aqueous One Solution assay (reference value: 100%); assay type: functional; details: 72 h, read-out: Activity
[2] = system: HeLa; assay: Cytotoxicity against human HeLa cells assessed as cell viability at 120 uM after 3 days by CellTiter96 Aqueous One Solution assay; assay type: functional, cell-based
[3] = target: T1, ATP-dependent translocase ABCB1 (Homo sapiens, UniProt P08183); assay: Inhibition of human P-glycoprotein 1 ATPase activity assessed as remaining ATP level by luminescence analysis
T1 sequence (P08183 whole entry): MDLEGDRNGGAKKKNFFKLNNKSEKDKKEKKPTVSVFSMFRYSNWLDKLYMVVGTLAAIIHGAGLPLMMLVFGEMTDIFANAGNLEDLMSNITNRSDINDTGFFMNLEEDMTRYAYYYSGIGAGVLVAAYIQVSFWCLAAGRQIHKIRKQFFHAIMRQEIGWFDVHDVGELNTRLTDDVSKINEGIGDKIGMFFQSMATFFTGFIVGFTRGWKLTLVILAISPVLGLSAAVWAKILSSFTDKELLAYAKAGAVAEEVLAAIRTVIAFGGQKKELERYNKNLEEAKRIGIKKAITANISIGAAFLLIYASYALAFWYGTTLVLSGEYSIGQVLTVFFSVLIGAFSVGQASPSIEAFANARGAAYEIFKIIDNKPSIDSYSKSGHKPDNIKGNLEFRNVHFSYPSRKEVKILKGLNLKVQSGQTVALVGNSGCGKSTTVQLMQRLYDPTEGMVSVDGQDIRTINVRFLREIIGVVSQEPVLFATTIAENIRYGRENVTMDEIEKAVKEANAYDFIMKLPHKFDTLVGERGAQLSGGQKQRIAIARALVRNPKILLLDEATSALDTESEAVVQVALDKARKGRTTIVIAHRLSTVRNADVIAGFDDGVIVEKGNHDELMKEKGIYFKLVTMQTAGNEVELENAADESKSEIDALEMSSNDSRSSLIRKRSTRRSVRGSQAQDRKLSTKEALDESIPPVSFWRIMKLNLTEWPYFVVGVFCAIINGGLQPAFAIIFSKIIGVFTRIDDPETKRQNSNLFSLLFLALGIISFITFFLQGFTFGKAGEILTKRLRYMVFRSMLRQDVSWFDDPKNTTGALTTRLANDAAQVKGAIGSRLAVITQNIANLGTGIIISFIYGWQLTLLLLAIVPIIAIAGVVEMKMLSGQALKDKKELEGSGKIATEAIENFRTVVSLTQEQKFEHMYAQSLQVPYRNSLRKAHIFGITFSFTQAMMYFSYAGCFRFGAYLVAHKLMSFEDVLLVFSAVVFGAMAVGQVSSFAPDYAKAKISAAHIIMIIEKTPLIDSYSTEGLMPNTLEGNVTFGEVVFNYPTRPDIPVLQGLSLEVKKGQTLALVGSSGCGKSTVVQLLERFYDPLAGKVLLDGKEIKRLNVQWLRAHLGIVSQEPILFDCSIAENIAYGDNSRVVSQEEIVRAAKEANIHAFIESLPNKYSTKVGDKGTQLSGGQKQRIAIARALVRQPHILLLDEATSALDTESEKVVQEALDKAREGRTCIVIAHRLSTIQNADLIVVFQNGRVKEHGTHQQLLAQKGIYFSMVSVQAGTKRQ

[4] = system: HeLa; assay: Effect on apoptosis in human HeLa cells assessed as cell morphology and extracellular membrane after 48 hrs; assay type: functional, cell-based
[5] = target: T1, ATP-dependent translocase ABCB1; assay: Inhibition of P-glycoprotein 1 in human HeLa cells assessed as intracellular accumulation of Hoechst 33342 dye after 30 mins by fluorescence microscopic analysis; assay type: cell-based
[6] = target: T2, DNA topoisomerase 1 (Homo sapiens, UniProt P11387); assay: Inhibition of human topoisomerase 1 activity assessed as DNA triplex formation and presence of supercoiled DNA by microplate assay
T2 sequence (P11387 whole entry): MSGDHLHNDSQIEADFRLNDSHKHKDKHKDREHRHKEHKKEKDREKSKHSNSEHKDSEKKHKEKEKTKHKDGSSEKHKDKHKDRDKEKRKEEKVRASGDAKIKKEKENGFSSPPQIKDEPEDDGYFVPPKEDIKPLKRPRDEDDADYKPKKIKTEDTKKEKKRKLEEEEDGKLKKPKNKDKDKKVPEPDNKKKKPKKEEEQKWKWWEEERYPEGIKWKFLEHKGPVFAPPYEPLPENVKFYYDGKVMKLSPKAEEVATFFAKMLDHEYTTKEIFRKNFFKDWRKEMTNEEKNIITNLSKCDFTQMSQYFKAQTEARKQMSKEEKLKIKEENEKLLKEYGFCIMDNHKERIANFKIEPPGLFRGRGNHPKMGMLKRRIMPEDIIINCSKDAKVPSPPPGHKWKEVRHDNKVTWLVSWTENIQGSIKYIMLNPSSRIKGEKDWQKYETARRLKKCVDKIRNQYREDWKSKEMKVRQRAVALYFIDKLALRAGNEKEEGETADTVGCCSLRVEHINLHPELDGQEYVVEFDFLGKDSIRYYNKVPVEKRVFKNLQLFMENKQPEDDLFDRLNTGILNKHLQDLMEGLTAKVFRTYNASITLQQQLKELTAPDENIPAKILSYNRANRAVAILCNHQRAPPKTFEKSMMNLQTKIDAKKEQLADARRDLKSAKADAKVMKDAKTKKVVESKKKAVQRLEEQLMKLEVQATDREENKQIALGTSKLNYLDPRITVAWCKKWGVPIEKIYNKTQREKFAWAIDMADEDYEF

[7] = system: Escherichia coli; assay: Inhibition of Escherichia coli topoisomerase assessed as bacterial proliferation at 200 uM after 24 hrs by visual inspection assay

O=c1c(-c2ccc3c(c2)OCCO3)coc2cc(OC3OC(CO)C(O)C(O)C3O)ccc12 (centres undefined)
viability at 120 µM [1]: 82%

CC(=O)OCC(OC(C)=O)C(OC(C)=O)C(O)C1SCC(C(=O)N(C)C)N1C(C)=O (centres undefined)
Activity [2]: inactive

CC(=O)OC[C@H](OC(C)=O)[C@H](OC(C)=O)[C@@H](CNC(=O)c1ccc(C)c(C)c1)OC(C)=O
Activity [2]: inactive | IC50 [3]: 28 µM | Activity [4]: inactive | IC50 [5]: 15.5 µM

CCSC(SCC)C(O)C(O)C(O)C(O)CO (centres undefined)
Activity [2]: inactive

CC(=O)c1ccc(OCC(O)CN2CCN(C(c3ccccc3)c3ccccc3)CC2)cc1 (centres undefined)
viability at 120 µM [1]: 37%

CC(=O)OCC(OC(C)=O)C(OC(C)=O)C(OC(C)=O)C(OC(C)=O)C(OC(C)=O)OC(C)=O (centres undefined)
Activity [2]: inactive

CN(C=C(C#N)C#N)CC(O)C(O)C(O)C(O)CO (centres undefined)
IC50 [6]: 47.5 µM | Activity [2]: inactive | inhibition [7]: inactive

CO[C@@H]1O[C@H](CO)[C@H](O)[C@H](O)[C@H]1O
Activity [2]: inactive

NC(=O)c1ncn([C@@H]2O[C@H](CO)[C@@H](O)[C@H]2O)n1 [RIBAVIRIN]
IC50 [6]: 65.9 µM | inhibition [7]: inactive

CC(=O)OCC1OC(Sc2ccccc2)C(OC(C)=O)C(OC(C)=O)C1OC(C)=O (centres undefined)
viability at 120 µM [1]: 87% | IC50 [3]: 37 µM | Activity [4]: inactive | IC50 [5]: 15.4 µM
